SMILES strings stand for the structures.

The target in the experiment is HIV-1 PR (Human immunodeficiency virus type 1 group M subtype B, UniProt P04585). Put plainly: HIV-protease inhibitory activity assay (FRET peptide substrate). Format: biochemical. Particulars: Test Example 1. The method in brief:
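Inhibition of HIV-1 protease was measured as loss of fluorescence dequenching of a HiLyte Fluor 488/QXL 520 peptide at 2 μmol/L, pH 4.8, room temperature, 60 minute reaction. IC50 was derived by nonlinear four-parameter fitting.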
`CC(C)CN(CC(O)C(Cc1ccc(OCc2ccc(C(=O)O)cc2-c2ccc(F)cc2F)cc1)NC(=O)OC1COC2(C)OCCC12)S(=O)(=O)c1ccc2ncsc2c1` (stereo not drawn) [Compound I-150] returned an IC50 of 0.93 nM.

In the case of `COc1ccc(S(=O)(=O)N(CC(C)C)CC(O)C(Cc2ccc(NCc3ccccc3-c3sc4c(c3C(=O)O)C(=O)CCC4)cc2)NC(=O)OC2COC3(C)OCCC23)cc1` (stereo not drawn) [Compound I-367], 2.61 nM corresponded to half-maximal inhibition (IC50).

Compound `COc1ccc(S(=O)(=O)N(CC(C)C)CC(O)C(Cc2ccc(NCc3ccccc3-c3cccc4[nH]c(C(=O)O)cc34)cc2)NC(=O)OC2COC3(C)OCCC23)cc1` (stereo not drawn) [Compound I-502] registered a concentration for half-maximal inhibition (IC50) of 1.87 nM.

For `COc1ccc(S(=O)(=O)N(CC(C)C)CC(O)C(Cc2ccc(NCc3nc4ccccc4cc3-c3sc4c(c3C(=O)O)CC(C)(C)CC4)cc2)NC(=O)OC2COC3(C)OCCC23)cc1` (stereo not drawn) [Compound I-568], half-maximal inhibition (IC50) required 1.54 nM. The IC50 values of the last two compounds are within 1.5-fold of each other.

In turn, `COc1ccc(S(=O)(=O)N(CC(C)C)C[C@@H](O)[C@H](Cc2ccc(NC(=O)Nc3sc4c(c3C(=O)O)CC(C)(C)CC4)cc2)NC(=O)O[C@H]2CO[C@@]3(C)OCC[C@@H]23)cc1` [Compound I-192] had an IC50 of 2.27 nM. The IC50 values of the last two compounds are within 1.5-fold of each other.

The compound `COc1ccc(S(=O)(=O)N(CC(C)C)CC(O)C(Cc2ccc(NCc3cc(-c4sc5c(c4C(=O)O)CC(C)(C)CC5)ccc3F)cc2)NC(=O)OC2COC3(C)OCCC23)cc1` (stereo not drawn) [Compound I-280] yielded an IC50 of 3.24 nM.

For `COc1ccc(S(=O)(=O)N(CC(C)C)CC(O)C(Cc2ccc(OCc3ccc(C(=O)O)c(-c4ccc(F)cc4F)c3)cc2)NC(=O)OC2COC3(C)OCCC23)cc1` (stereo not drawn) [Compound I-149], the IC50 was 1.27 nM.

In turn, `COc1ccc(S(=O)(=O)N(CC(C)C)CC(O)C(Cc2ccc(OC3CCCN(Cc4sc5c(c4C(=O)O)CC(C)(C)CC5)C3)cc2)NC(=O)OC2COC3(C)OCCC23)cc1` (stereo not drawn) [Compound I-198] displayed an IC50 of 1.95 nM. Against the preceding compound, the IC50 is about 1.5-fold higher.

For `COc1ccc(S(=O)(=O)N(CC(C)C)CC(O)C(Cc2ccc(NCc3ccc(C(=O)O)cc3)cc2)NC(=O)OC2COC3(C)OCCC23)cc1` (stereo not drawn) [Compound I-316], the IC50 was 1.85 nM.

As to `COc1ccc(S(=O)(=O)N(CC(C)C)CC(O)C(Cc2ccc(OCCn3nc(C)c(-c4sc5c(c4C(=O)O)CC(C)(C)CC5)c3C)cc2)NC(=O)OC2COC3OCCC23)cc1` (stereo not drawn) [Compound I-810], the IC50 stood at 1.03 nM.

For `COc1ccc(S(=O)(=O)N(CC(C)C)CC(O)C(Cc2ccc(NCc3cc(O)cc(-c4sc5c(c4C(=O)O)CC(C)(C)CC5)c3)cc2)NC(=O)OC2COC3(C)OCCC23)cc1` (stereo not drawn) [Compound I-562], the IC50 came out at 1.98 nM.

As for `COc1ccc(S(=O)(=O)N(CC(C)C)CC(O)C(Cc2ccc(NCc3ccccc3-c3c(C(=O)O)[nH]c4ccccc34)cc2)NC(=O)OC2COC3(C)OCCC23)cc1` (stereo not drawn) [Compound I-660], the IC50 was determined as 2.12 nM.

For the compound `COc1ccc(S(=O)(=O)N(CC(C)C)CC(O)C(Cc2ccc(NCc3ccccc3-c3cnc(-c4sc5c(c4C(=O)O)CC(C)(C)CC5)s3)cc2)NC(=O)OC2COC3(C)OCCC23)cc1` (stereo not drawn) [Compound I-766], the IC50 was 3.28 nM.

In turn, `COc1ccc(S(=O)(=O)N(CC(C)C)CC(O)C(Cc2ccc(NCC3CCCCN3C(=O)c3sc4c(c3C(=O)O)CC(C)(C)CC4)cc2)NC(=O)OC2COC3(C)OCCC23)cc1` (stereo not drawn) [Compound I-604] gave an IC50 of 2.19 nM.

Compound `COc1ccc(S(=O)(=O)N(CC(C)C)CC(O)C(Cc2ccc(NCc3ccc(-c4sc5c(c4C(=O)O)CC(C)(C)CC5)c4ccccc34)cc2)NC(=O)OC2COC3(C)OCCC23)cc1` (stereo not drawn) [Compound I-322] returned an IC50 of 10.5 nM.

As for `COc1ccc(S(=O)(=O)N(CC(C)C)CC(O)C(Cc2ccc(N3CCc4ccc(-c5sc6c(c5C(=O)O)CC(C)(C)CC6)cc4C3)cc2)NC(=O)OC2COC3(C)OCCC23)cc1` (stereo not drawn) [Compound I-215], the concentration for half-maximal inhibition (IC50) was 2.01 nM.

In the case of `COc1ccc(S(=O)(=O)N(CC(C)C)CC(O)C(Cc2ccc(N(CCC(C)C)Cc3ccccc3-c3sc4c(c3C(=O)O)CC(C)(C)CC4)cc2)NC(=O)OC2COC3(C)OCCC23)cc1` (stereo not drawn) [Compound I-461], 7.09 nM corresponded to half-maximal inhibition (IC50).

Consider `COc1ccc(S(=O)(=O)N(CC(C)C)CC(O)C(Cc2ccc(NCc3ccc(C(=O)O)cc3-c3sc4c(c3C(=O)O)CC(C)(C)CC4)cc2)NC(=O)OC2COC3(C)OCCC23)cc1` (stereo not drawn) [Compound I-413], for which the IC50 was determined as 1.84 nM.

Regarding `COc1ccc(S(=O)(=O)N(CC2CCCC2)CC(O)C(Cc2ccc(NCc3ccccc3C(=O)Nc3sc4c(c3C(=O)O)CC(C)(C)CC4)cc2)NC(=O)OC2COC3(C)OCCC23O)cc1` (stereo not drawn) [Compound I-892], half-maximal inhibition (IC50) required 4.06 nM. This IC50 is about 2.2-fold higher than that of the compound before.

Compound `COc1ccc(S(=O)(=O)N(CC(C)C)CC(O)C(Cc2ccc(NC3CCCc4c(-c5sc6c(c5C(=O)O)CC(C)(C)CC6)cccc43)cc2)NC(=O)OC2COC3(C)OCCC23)cc1` (stereo not drawn) [Compound I-752] yielded an IC50 of 13.3 nM. Compared with the last compound, the IC50 is about 3.3-fold higher.

`COc1ccc(S(=O)(=O)N(CC(C)C)CC(O)C(Cc2ccc(NCc3cccc(-c4sc5c(c4C(=O)O)CC(C)(C)CC5)c3F)cc2)NC(=O)OC2COC3(C)OCCC23)cc1` (stereo not drawn) [Compound I-543] yielded a 50% inhibitory concentration (IC50) of 2.14 nM.

`COc1ccc(S(=O)(=O)N(CC(C)C)CC(O)C(Cc2ccc(N(C)CCOc3ccccc3-c3sc4c(c3C(=O)O)CC(C)(C)CC4)cc2)NC(=O)OC2COC3OCCC23)cc1` (stereo not drawn) [Compound I-864]: the IC50 turned out to be 2.25 nM.

The compound `COc1ccc(S(=O)(=O)N(CC(C)C)CC(O)C(Cc2ccc(N(C)Cc3cocc3-c3sc4c(c3C(=O)O)CC(C)(C)CC4)cc2)NC(=O)OC2COC3(C)OCCC23)cc1` (stereo not drawn) [Compound I-570] displayed an IC50 of 1.87 nM.

The compound `COc1ccc(S(=O)(=O)N(CC(C)C)CC(O)C(Cc2ccc(N(C)CC3CCCCC3c3sc4c(c3C(=O)O)CC(C)(C)CC4)cc2)NC(=O)OC2COC3(C)OCCC23)cc1` (stereo not drawn) [Compound I-375] returned an IC50 of 3.87 nM.

In turn, `COc1ccc(S(=O)(=O)N(CC(C)C)CC(O)C(Cc2ccc(NCc3ccc(C)cc3C(=O)Nc3sc4c(c3C(=O)O)CC(C)(C)CC4)cc2)NC(=O)OC2COC3(C)OCCC23)cc1` (stereo not drawn) [Compound I-716] returned a 50% inhibitory concentration (IC50) of 3.95 nM.

Turning to `COc1ccc(S(=O)(=O)N(CC(C)C)CC(O)C(Cc2ccc(NCC3CCCC3c3sc4c(c3C(=O)O)CC(C)(C)CC4)cc2)NC(=O)OC2COC3(C)OCCC23)cc1` (stereo not drawn) [Compound I-670], the IC50 is 2.67 nM.

On to `COC(=O)NC(C(=O)NC(Cc1ccccc1)C(O)CN(Cc1ccc(-c2ccc(-c3sc4c(c3C(=O)O)CC(C)(C)CC4)cc2)cc1)NC(=O)C(NC(=O)OC)C(C)(C)C)C(C)(C)C` (stereo not drawn) [Compound I-900], for which the IC50 was 2.9 nM.

In turn, `COc1ccc(S(=O)(=O)N(CC(C)C)CC(O)C(Cc2ccc(C3=CCC(c4sc5c(c4C(=O)O)CC(C)(C)CC5)CC3)cc2)NC(=O)OC2COC3(C)OCCC23)cc1` (stereo not drawn) [Compound I-202] had an IC50 of 12.1 nM.

Compound `COc1ccc(S(=O)(=O)N(CC(C)C)CC(O)C(Cc2ccc(NCC3CCCCC3C(=O)Nc3sc4c(c3C(=O)O)CC(C)(C)CC4)cc2)NC(=O)OC2COC3(C)OCCC23)cc1` (stereo not drawn) [Compound I-615] displayed an IC50 of 3.37 nM.

On to `COc1ccc(S(=O)(=O)N(CC(C)C)CC(O)C(Cc2ccc(N(C)CC3CCCC3c3sc4c(c3C(=O)O)CC(C)(C)CC4)cc2)NC(=O)OC2COC3(C)OCCC23)cc1` (stereo not drawn) [Compound I-470], for which half-maximal inhibition (IC50) was put at 2.67 nM.

Compound `COc1ccc(S(=O)(=O)N(CC(C)C)CC(O)C(Cc2ccc(OCc3ccc(C#N)cc3-c3sc4c(c3C(=O)O)CC(C)(C)CC4)cc2)NC(=O)OC2COC3(C)OCCC23)cc1` (stereo not drawn) [Compound I-80] displayed an IC50 of 1.75 nM.

Turning to `COc1ccc(S(=O)(=O)N(CC(C)C)CC(O)C(Cc2ccc(NCc3cc(-c4ccc(-c5ccccc5)cc4)ccc3-c3sc4c(c3C(=O)O)CC(C)(C)CC4)cc2)NC(=O)OC2COC3(C)OCCC23)cc1` (stereo not drawn) [Compound I-721], half-maximal inhibition (IC50) was put at 2.24 nM.

In the case of `COc1ccc(S(=O)(=O)N(CC(C)C)CC(O)C(Cc2ccc(OC3CN(c4cccc(-c5sc6c(c5C(=O)O)CC(C)(C)CC6)c4)C3)cc2)NC(=O)OC2COC3(C)OCCC23)cc1` (stereo not drawn) [Compound I-360], inhibition was half-maximal at 4.54 nM (IC50).

Compound `CC(C)CN(CC(O)C(Cc1ccc(CCc2sc3c(c2C(=O)O)CC(C)(C)CC3)cc1)NC(=O)OC1COC2(C)OCCC12)S(=O)(=O)c1ccc2ncsc2c1` (stereo not drawn) [Compound I-107] displayed an IC50 of 2.37 nM. Compared with the last compound, the IC50 is about 1.9-fold lower.

`COc1ccc(S(=O)(=O)N(CC(C)C)CC(O)C(Cc2ccc(OCc3ccccc3-c3c(C(=O)O)c4c(n3C)CCCC4)cc2)NC(=O)OC2COC3(C)OCCC23)cc1` (stereo not drawn) [Compound I-50] displayed a half-maximal inhibitory concentration (IC50) of 1.13 nM.

In the case of `COc1ccc(S(=O)(=O)N(CC(C)C)CC(O)C(Cc2ccc(N(C)CC3=C(c4sc5c(c4C(=O)O)CC(C)(C)CC5)C4CC(C3)C4(C)C)cc2)NC(=O)OC2COC3(C)OCCC23)cc1` (stereo not drawn) [Compound I-628], the IC50 was 5.03 nM.

In the case of `COc1ccc(S(=O)(=O)N(CC(C)C)CC(O)C(Cc2ccc(NCc3nc(N4CCCCC4)sc3-c3sc4c(c3C(=O)O)CC(C)(C)CC4)cc2)NC(=O)OC2COC3(C)OCCC23)cc1` (stereo not drawn) [Compound I-737], inhibition was half-maximal at 1.99 nM (IC50).

Turning to `COc1ccc(S(=O)(=O)N(CC(C)C)CC(O)C(Cc2ccc(NCC3(c4ccc(-c5sc6c(c5C(=O)O)CC(C)(C)CC6)cc4)CCCCC3)cc2)NC(=O)OC2COC3(C)OCCC23)cc1` (stereo not drawn) [Compound I-369], the IC50 was determined as 15.8 nM.

Compound `COc1ccc(S(=O)(=O)N(CC(C)C)CC(O)C(Cc2ccc(NCc3ccc(Oc4ccc(-c5sc6c(c5C(=O)O)CC(C)(C)CC6)cc4)cc3)cc2)NC(=O)OC2COC3(C)OCCC23)cc1` (stereo not drawn) [Compound I-564] gave an IC50 of 14.2 nM.

As for `COc1ccc(S(=O)(=O)N(CC(C)C)CC(O)C(Cc2ccc(NCc3csc(-c4sc5c(c4C(=O)O)CC(C)(C)CC5)n3)cc2)NC(=O)OC2COC3(C)OCCC23)cc1` (stereo not drawn) [Compound I-295], the IC50 was 2.19 nM.

`COc1ccc(S(=O)(=O)N(CC(C)C)C[C@@H](O)[C@H](Cc2ccc(COc3ccccc3-c3sc4c(c3C(=O)O)CC(C)(C)CC4)cc2)NC(=O)O[C@H]2CO[C@@]3(C)OCC[C@@H]23)cc1` [Compound I-4] yielded an IC50 of 1.69 nM.

For `COc1ccc(S(=O)(=O)N(CC(C)C)CC(O)C(Cc2ccc(NCc3ccccc3-c3c(C(=O)O)[nH]c4ccc(OC)cc34)cc2)NC(=O)OC2COC3(C)OCCC23)cc1` (stereo not drawn) [Compound I-506], the IC50 came out at 1.7 nM. The IC50 values of the last two compounds are within 1.5-fold of each other.

As a reminder, the IC50 is the concentration needed to halve the response being measured.

The values above are taken from patent US20170253607A1, “LONG-ACTING HIV PROTEASE INHIBITOR” (Shionogi & Co., Ltd., priority 2014, published 2017).
